Experimental findings from patent publication US20120077814A1, “SULFONAMIDE, SULFAMATE, AND SULFAMOTHIOATE DERIVATIVES” (priority 2010, published 2012) are described below.

Assay [1] deals with HCT-116 cell proliferation. Briefly: Cell proliferation assay (HCT-116). The assay is classed as cell-based. The note with it: Homo sapiens; HCT-116 cells; read-out: Activity (range of inhibitory activity against HCT-116 cell proliferation, IC50). Here is the method: A panel of cancer cell lines is obtained from ATCC (Rockville, Md.). Cell cultures are maintained in Hyclone DMEM/F12 medium (Logan, Utah) supplemented with 10% fetal bovine serum and 15 mM HEPES buffer, final pH 7.2, at 37° C. with a 5% CO2 atmosphere. Cultures are maintained at sub-confluent densities.
For proliferation assays, cells are seeded into 96 well plates at 1,000-5,000 cells per well, depending on the cell line, and are incubated overnight. The following day, test compound, DMSO solution (negative control), or Actinomycin D (positive control) is added to the appropriate wells as 10× concentrated stocks prepared in phosphate buffered saline. The cell plates are then incubated for an additional 2-6 days, depending on the cell line, to allow proliferation to occur. To measure cell growth in adherent cultures, DNA amounts are measured in each well using the CyQuant DNA determination kit (Invitrogen, Carlsbad, Calif.) following the recommended protocol. Measurement of cell growth in suspension cultures is done by use of Celltiter Reagent (Promega, Madison, Wis.) at the end of treatment, following the recommended protocol. The percentage of cell growth is determined by comparing the cell growth in the presence of test compounds to the cells treated with DMSO vehicle (control, 100% growth) and cells treated with Actinomycin D ([…], 0% growth). […]

Assay [2] deals with T1, recombinant human NAE enzyme (NEDD8 Activating Enzyme) (Homo sapiens, UniProt Q8TBC4).
T1 sequence (Q8TBC4 1-463): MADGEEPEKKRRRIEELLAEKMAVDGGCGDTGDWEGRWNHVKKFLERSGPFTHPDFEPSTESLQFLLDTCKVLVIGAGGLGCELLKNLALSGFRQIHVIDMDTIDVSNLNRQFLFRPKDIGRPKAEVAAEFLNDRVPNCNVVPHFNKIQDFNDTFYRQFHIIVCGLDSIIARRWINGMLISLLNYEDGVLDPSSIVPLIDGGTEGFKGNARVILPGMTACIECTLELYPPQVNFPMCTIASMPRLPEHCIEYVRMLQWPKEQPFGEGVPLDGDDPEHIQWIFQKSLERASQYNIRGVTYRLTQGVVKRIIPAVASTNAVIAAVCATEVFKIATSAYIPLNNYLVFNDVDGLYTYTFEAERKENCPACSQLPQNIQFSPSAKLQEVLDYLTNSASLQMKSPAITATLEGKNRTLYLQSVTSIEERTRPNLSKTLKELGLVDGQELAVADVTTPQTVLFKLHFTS
T1 sequence (Q13564 1-534 partner): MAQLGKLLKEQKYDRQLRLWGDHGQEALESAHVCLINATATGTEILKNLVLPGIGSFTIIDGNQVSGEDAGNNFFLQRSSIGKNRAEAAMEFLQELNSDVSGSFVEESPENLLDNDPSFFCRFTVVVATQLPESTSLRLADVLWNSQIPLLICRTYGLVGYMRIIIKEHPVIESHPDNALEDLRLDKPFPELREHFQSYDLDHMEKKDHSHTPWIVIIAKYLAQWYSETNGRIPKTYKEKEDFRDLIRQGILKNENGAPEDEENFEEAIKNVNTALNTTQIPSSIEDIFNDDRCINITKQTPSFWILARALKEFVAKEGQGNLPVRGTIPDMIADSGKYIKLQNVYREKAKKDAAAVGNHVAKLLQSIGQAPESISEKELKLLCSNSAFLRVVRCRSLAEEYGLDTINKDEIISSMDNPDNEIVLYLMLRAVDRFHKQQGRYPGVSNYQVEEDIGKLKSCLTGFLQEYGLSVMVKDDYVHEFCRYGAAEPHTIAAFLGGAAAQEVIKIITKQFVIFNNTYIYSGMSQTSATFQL
Briefly: E1-activating enzyme assay, time-resolved fluorescence energy transfer (NAE). Format: biochemical. The conditions noted are these: 0.5 nM recombinant human NAE, 100 μM ATP; read-out: Activity (range of inhibitory activity on NAE, IC50). The method, then: A time-resolved fluorescence energy transfer assay format is used to measure the in vitro activity of NEDD8 Activating Enzyme (NAE). The enzymatic reaction is performed in a total volume of 50 μL, containing 50 mM HEPES, pH 7.5, 0.05% BSA, 5 mM MgCl2, 100 μM ATP, 10 nM Ubc12-GST, 75 nM NEDD8-Flag and 0.5 nM recombinant human NAE enzyme. The reaction mixture is incubated with and without compound inhibitor at 24° C. for 30 min in a 96 half-well plate. The reaction is then terminated with 25 μL of stop/detection buffer (0.1 M HEPES, pH 7.5, 0.05% Tween20, 20 mM EDTA, 410 mM KF, 81.8 ng/mL Europium-Cryptate-labelled monoclonal Flag-M2-specific antibody (CisBio International) and 8.125 μg/mL PHYCOLINK allophycocyanin (XL-APC)-labelled GST-specific antibody (Prozyme)). After incubation for 2 hours at 24° C., the plate is read on a Tecan Infinite M1000 instrument using a time-resolved fluorescence method. A similar assay protocol is used to measure other E1 enzymes. For the Sumo Activating Enzyme (SAE) assay everything is conducted as described for NAE except that Ubc12-GST and NEDD8-Flag are replaced with 10 nM Ubc9-GST and 125 nM Sumo-Flag respectively, and recombinant human SAE (0.6 nM) replaced NAE. The Ubiquitin Activating Enzyme (UAE) assay is performed as described for NAE except Ubc12-GST, NEDD8-Flag, and NAE are replaced with 5 nM Ubc2-GST, 125 nM UBB-Flag, and 1.5 nM UAE respectively.
Compounds of the disclosure are inhibitors of NAE. Several exemplary compounds useful in the methods of the disclosure are listed below.

On to `NS(=O)(=O)OC[C@H]1O[C@@H](c2ccc3c(N[C@H]4CCc5ccccc54)ncnn23)CC1=O` [Compound 1, [(2R,5R)-5-[4-[[(1S)-indan-1-yl]amino]pyrrolo[2,1-f][1,2,4]triazin-7-yl]-3-oxo-tetrahydrofuran-2-yl]methyl sulfamate], for which the IC50 in assay [1] and in assay [2] was 5 to 50 µM throughout. Take `Nc1ncnc2c([C@@H]3O[C@H](COS(N)(=O)=O)[C@@H](O)[C@H]3O)[nH]nc12` [Compound 3, [(2R,3S,4R,5S)-5-(7-amino-1H-pyrazolo[4,3-d]pyrimidin-3-yl)-3,4-dihydroxy-tetrahydrofuran-2-yl]methyl sulfamate]: the IC50 in assay [1] and in assay [2] was 0.5 to 5 µM in each case.

On to `Nc1ncnc2c([C@@H]3O[C@H](COS(N)(=O)=O)[C@@H](O)[C@H]3O)csc12` [Compound 4, [(2R,3S,4R,5S)-5-(4-aminothieno[3,2-d]pyrimidin-7-yl)-3,4-dihydroxy-tetrahydrofuran-2-yl]methyl sulfamate], for which the IC50 in assay [1] and in assay [2] was less than 0.5 µM in each case. With `NS(=O)(=O)OC[C@H]1O[C@@H](c2csc3c(NCc4ccc(Cl)cc4)ncnc23)[C@H](O)[C@@H]1O` [Compound 6, ((2R,3S,4R,5S)-5-(4-(4-chlorobenzylamino)thieno[3,2-d]pyrimidin-7-yl)-3,4-dihydroxytetrahydrofuran-2-yl)methyl sulfamate], the IC50 in assay [1] is 0.5 to 5 µM; in assay [2], less than 0.5 µM. On the same counts, the results for `NS(=O)(=O)OC[C@H]1O[C@@H](c2csc3c(N[C@H]4CCc5ccccc54)ncnc23)C[C@@H]1O` [Compound 10, ((2R,3S,5R)-5-(4-((S)-2,3-dihydro-1H-inden-1-ylamino)thieno[3,2-d]pyrimidin-7-yl)-3-hydroxytetrahydrofuran-2-yl)methyl sulfamate] are 0.5 to 5 µM and 0.5 to 5 µM. Take `Nc1ncnc2c([C@@H]3O[C@H](COS(N)(=O)=O)[C@@H](O)[C@H]3O)coc12` [Compound 11, ((2R,3S,4R,5S)-5-(4-aminofuro[3,2-d]pyrimidin-7-yl)-3,4-dihydroxytetrahydrofuran-2-yl)methyl sulfamate]: the figures for the IC50 in assay [1] and in assay [2] were less than 0.5 µM and 0.5 to 5 µM, respectively. For `Nc1ncnc2c([C@@H]3O[C@H](COS(N)(=O)=O)[C@@H](O)[C@H]3O)cnn12` [Compound 13, ((2R,3S,4R,5S)-5-(4-aminopyrazolo[1,5-a][1,3,5]triazin-8-yl)-3,4-dihydroxytetrahydrofuran-2-yl)methyl sulfamate], the IC50 in assay [1] was 5 to 50 µM. In the case of `NS(=O)(=O)OC[C@H]1C[C@H](c2ccc3c(N[C@H]4CCc5ccccc54)ncnn23)C[C@@H]1OS(N)(=O)=O` [Compound 19, [2-[(aminosulfonyl)oxy]-4-{4-[2,3-dihydro-1H-inden-1-ylamino]pyrrolo[2,1-f][1,2,4]triazin-7-yl}cyclopentyl]methyl sulfamate], the IC50 in assay [1] and in assay [2] was 5 to 50 µM each time. For the compound `NS(=O)(=O)OC[C@H]1O[C@@H](c2csc3c(NCc4ccccc4)ncnc23)[C@H](O)[C@@H]1O` [Compound 25, (5-(4-(benzylamino)thieno[3,2-d]pyrimidin-7-yl)-3,4-dihydroxytetrahydrofuran-2-yl)methyl sulfamate], the IC50 in assay [1] is 0.5 to 5 µM. With `NS(=O)(=O)OC[C@H]1O[C@@H](c2csc3c(NCC4CC4)ncnc23)[C@H](O)[C@@H]1O` [Compound 26, (5-(4-(cyclopropylmethylamino)thieno[3,2-d]pyrimidin-7-yl)-3,4-dihydroxytetrahydrofuran-2-yl)methyl sulfamate], the IC50 in assay [1] was 5 to 50 µM.

For `COCCNc1ncnc2c([C@@H]3O[C@H](COS(N)(=O)=O)[C@@H](O)[C@H]3O)csc12` [Compound 28, (3,4-dihydroxy-5-(4-(2-methoxyethylamino)thieno[3,2-d]pyrimidin-7-yl)tetrahydrofuran-2-yl)methyl sulfamate], the IC50 in assay [1] fell in the range of 5 to 50 µM.

`NS(=O)(=O)OC[C@H]1O[C@@H](c2csc3c(NCc4ccccc4Cl)ncnc23)[C@H](O)[C@@H]1O` [Compound 30, (5-(4-(2-chlorobenzylamino)thieno[3,2-d]pyrimidin-7-yl)-3,4-dihydroxytetrahydrofuran-2-yl)methyl sulfamate]: the IC50 in assay [2] fell in the range of 0.5 to 5 µM. Regarding `NS(=O)(=O)OC[C@H]1O[C@@H](c2coc3c(NCc4ccc(Cl)cc4Cl)ncnc23)[C@H](O)[C@@H]1O` [Compound 34, (5-(4-(2,4-dichlorobenzylamino)furo[3,2-d]pyrimidin-7-yl)-3,4-dihydroxytetrahydrofuran-2-yl)methyl sulfamate], the IC50 in assay [1] was in the range of 5 to 50 µM.

For the compound `NS(=O)(=O)OC[C@H]1O[C@@H](c2coc3c(NCc4ccc(Cl)c(C(F)(F)F)c4)ncnc23)[C@H](O)[C@@H]1O` [Compound 35, (5-(4-(4-chloro-3-(trifluoromethyl)benzylamino)furo[3,2-d]pyrimidin-7-yl)-3,4-dihydroxytetrahydrofuran-2-yl)methyl sulfamate], the IC50 in assay [2] was in the range of 0.5 to 5 µM. Same read-out and setting: next, `NS(=O)(=O)OC[C@H]1O[C@@H](c2csc3c(NCc4cccc(Cl)c4)ncnc23)[C@H](O)[C@@H]1O` [Compound 37, (5-(4-(3-chlorobenzylamino)thieno[3,2-d]pyrimidin-7-yl)-3,4-dihydroxytetrahydrofuran-2-yl)methyl sulfamate]: 0.5 to 5 µM.
